{"source": "paper PMC5218480", "about": "(PLoS ONE, 2017)", "tested_on": "MV-4-11 cells", "assay": "Gene expression microarray analysis (Affymetrix PrimeView) and GSEA", "format": "cell-based, human", "parameters": "RFU PODN (11730768_x_at) / Fold change /veh PODN (11730768_x_at) / RFU LINC00158 (11744669_a_at) / Fold change /veh LINC00158 (11744669_a_at) / RFU DUSP10 (11751237_a_at) / Fold change /veh DUSP10 (11751237_a_at) / RFU ID3 (11757404_x_at) / Fold change /veh ID3 (11757404_x_at) / RFU PLEKHG5 (11737974_s_at) / Fold change /veh PLEKHG5 (11737974_s_at) / RFU LRRC4B (11730491_at) / Fold change /veh LRRC4B (11730491_at) / RFU GIMAP4 (11747438_a_at) / Fold change /veh GIMAP4 (11747438_a_at) / RFU KRT8 (11758183_x_at) / Fold change /veh KRT8 (11758183_x_at) / RFU CNN1 (11734310_a_at) / Fold change /veh CNN1 (11734310_a_at) / RFU VPS37D (11726825_at) / Fold change /veh VPS37D (11726825_at) / RFU C10orf10 (11716522_x_at) / Fold change /veh C10orf10 (11716522_x_at) / RFU KIR2DL2 /// KIR2DL4 /// KIR2DL5A /// KIR2DL5B /// KIR2DS1 /// KIR2DS2 /// KIR2DS3 /// KIR2DS4 /// KIR3DL3 /// KIR3DL3 /// KIR3DS1 (11738374_at) / Fold change /veh KIR2DL2 /// KIR2DL4 /// KIR2DL5A /// KIR2DL5B /// KIR2DS1 /// KIR2DS2 /// KIR2DS3 /// KIR2DS4 /// KIR3DL3 /// KIR3DL3 /// KIR3DS1 (11738374_at) / RFU C1QL1 (11718748_at) / Fold change /veh C1QL1 (11718748_at) / RFU TMPRSS4 (11747572_a_at) / Fold change /veh TMPRSS4 (11747572_a_at) / RFU HAMP (11756126_x_at) / Fold change /veh HAMP (11756126_x_at) / RFU RNFT2 (11725882_a_at) / Fold change /veh RNFT2 (11725882_a_at) / RFU NR4A2 (11747474_a_at) / Fold change /veh NR4A2 (11747474_a_at) / RFU ABCC12 (11746883_a_at) / Fold change /veh ABCC12 (11746883_a_at) / RFU TMEM136 (11760407_x_at) / Fold change /veh TMEM136 (11760407_x_at) / RFU CLDN22 /// WWC2 (11732394_at) / Fold change /veh CLDN22 /// WWC2 (11732394_at) / RFU HLA-DPB1 (11760878_x_at) / Fold change /veh HLA-DPB1 (11760878_x_at) / RFU SPINT1 (11716480_a_at) / Fold change /veh SPINT1 (11716480_a_at) / RFU GAP43 (11754022_s_at) / Fold change /veh GAP43 (11754022_s_at) / RFU A4GNT (11735810_at) / Fold change /veh A4GNT (11735810_at) / RFU PRB3 (11715151_x_at) / Fold change /veh PRB3 (11715151_x_at) / RFU TUBB4B (11761932_at) / Fold change /veh TUBB4B (11761932_at) / RFU CAPN14 (11732068_a_at) / Fold change /veh CAPN14 (11732068_a_at) / RFU TMCC2 (11721928_a_at) / Fold change /veh TMCC2 (11721928_a_at) / RFU IRGQ (11745062_a_at) / Fold change /veh IRGQ (11745062_a_at) / RFU FAM174B (11720279_a_at) / Fold change /veh FAM174B (11720279_a_at) / RFU TMPRSS4 (11748680_a_at) / Fold change /veh TMPRSS4 (11748680_a_at) / RFU FAM212B (11763350_a_at) / Fold change /veh FAM212B (11763350_a_at) / RFU PLEKHG5 (11743358_a_at) / Fold change /veh PLEKHG5 (11743358_a_at) / RFU ZSCAN30 (11745921_a_at) / Fold change /veh ZSCAN30 (11745921_a_at) / RFU CMKLR1 (11741424_a_at) / Fold change /veh CMKLR1 (11741424_a_at) / RFU LOC101060620 /// MAPK8IP1 (11723275_at) / Fold change /veh LOC101060620 /// MAPK8IP1 (11723275_at) / RFU SPTSSB (11747773_x_at) / Fold change /veh SPTSSB (11747773_x_at) / RFU PRSS12 (11739890_at) / Fold change /veh PRSS12 (11739890_at) / RFU BIN1 (11741810_x_at) / Fold change /veh BIN1 (11741810_x_at) / RFU WNT11 (11732464_a_at) / Fold change /veh WNT11 (11732464_a_at) / RFU C10orf10 (11716521_a_at) / Fold change /veh C10orf10 (11716521_a_at) / RFU C5orf56 (11738089_at) / Fold change /veh C5orf56 (11738089_at) / RFU CYB561 (11721691_x_at) / Fold change /veh CYB561 (11721691_x_at) / RFU ANKRD19P (11752326_a_at) / Fold change /veh ANKRD19P (11752326_a_at) / RFU OR2T12 /// OR2T33 /// OR2T8 (11738714_s_at) / Fold change /veh OR2T12 /// OR2T33 /// OR2T8 (11738714_s_at) / RFU VCAN (11748164_a_at) / Fold change /veh VCAN (11748164_a_at) / RFU JSRP1 (11732532_at) / Fold change /veh JSRP1 (11732532_at) / RFU KRTAP10-11 (11738290_x_at) / Fold change /veh KRTAP10-11 (11738290_x_at) / RFU MYO3A (11730013_a_at) / Fold change /veh MYO3A (11730013_a_at) / RFU EBF3 (11725865_a_at) / Fold change /veh EBF3 (11725865_a_at) / RFU CAMK2N1 (11719241_x_at) / Fold change /veh CAMK2N1 (11719241_x_at) / RFU C5orf56 (11738088_a_at) / Fold change /veh C5orf56 (11738088_a_at) / RFU OLFML3 (11715873_a_at) / Fold change /veh OLFML3 (11715873_a_at) / RFU LOC100653217 /// NTM (11731650_a_at) / Fold change /veh LOC100653217 /// NTM (11731650_a_at) / RFU MAPK11 (11762145_a_at) / Fold change /veh MAPK11 (11762145_a_at) / RFU FIZ1 (11724087_x_at) / Fold change /veh FIZ1 (11724087_x_at) / RFU OASL (11726364_x_at) / Fold change /veh OASL (11726364_x_at) / RFU SOX15 (11748057_x_at) / Fold change /veh SOX15 (11748057_x_at) / RFU CD79A (11719716_a_at) / Fold change /veh CD79A (11719716_a_at) / RFU HIST1H1D (11736915_at) / Fold change /veh HIST1H1D (11736915_at) / RFU CASKIN2 (11723855_a_at) / Fold change /veh CASKIN2 (11723855_a_at) / RFU LOC730098 (11760151_x_at) / Fold change /veh LOC730098 (11760151_x_at) / RFU OR4N2 (11742367_at) / Fold change /veh OR4N2 (11742367_at) / RFU PRRT2 (11749266_a_at) / Fold change /veh PRRT2 (11749266_a_at) / RFU SNX32 (11753110_a_at) / Fold change /veh SNX32 (11753110_a_at) / RFU CDHR5 (11726645_a_at) / Fold change /veh CDHR5 (11726645_a_at) / RFU RCAN1 (11760418_a_at) / Fold change /veh RCAN1 (11760418_a_at) / RFU FAM167A (11723789_a_at) / Fold change /veh FAM167A (11723789_a_at) / RFU FAM26E (11764081_at) / Fold change /veh FAM26E (11764081_at) / RFU ISYNA1 (11749810_s_at) / Fold change /veh ISYNA1 (11749810_s_at) / RFU ACY1 (11761880_at) / Fold change /veh ACY1 (11761880_at) / RFU 11764098_at / Fold change /veh 11764098_at / RFU SAMD14 (11745864_x_at) / Fold change /veh SAMD14 (11745864_x_at) / RFU NPB (11741838_a_at) / Fold change /veh NPB (11741838_a_at) / RFU TMPRSS6 (11731388_a_at) / Fold change /veh TMPRSS6 (11731388_a_at) / RFU KRTAP10-2 (11738614_at) / Fold change /veh KRTAP10-2 (11738614_at) / RFU ARHGAP8 /// PRR5-ARHGAP8 (11727945_x_at) / Fold change /veh ARHGAP8 /// PRR5-ARHGAP8 (11727945_x_at) / RFU KRTAP5-7 /// NADSYN1 (11734609_at) / Fold change /veh KRTAP5-7 /// NADSYN1 (11734609_at) / RFU RASL12 (11751679_a_at) / Fold change /veh RASL12 (11751679_a_at) / RFU CDKN2B (11736163_a_at) / Fold change /veh CDKN2B (11736163_a_at) / RFU PRF1 (11729649_at) / Fold change /veh PRF1 (11729649_at) / RFU, ZNF638 /// ZNF638-IT1 / Fold change vs veh, ZNF638 /// ZNF638-IT1 / RFU, PANK3 / Fold change vs veh, PANK3 / RFU, SH3YL1 / Fold change vs veh, SH3YL1 / RFU, ZEB2 / Fold change vs veh, ZEB2 / RFU, NRIP1 / Fold change vs veh, NRIP1 / RFU, PTTG1IP / Fold change vs veh, PTTG1IP / RFU, CAPN2 / Fold change vs veh, CAPN2 / RFU, MED14 / Fold change vs veh, MED14 / RFU, SNORA58 / Fold change vs veh, SNORA58 / RFU, C1orf63 / Fold change vs veh, C1orf63 / RFU, LRRFIP1 / Fold change vs veh, LRRFIP1 / RFU, NDUFAF7 / Fold change vs veh, NDUFAF7 / RFU, SLC12A2 / Fold change vs veh, SLC12A2 / RFU, IBTK / Fold change vs veh, IBTK / RFU, ESF1 / Fold change vs veh, ESF1 / Fold change vs veh, TMEM50B / RFU, TAOK1 / Fold change vs veh, TAOK1 / RFU, ACBD3 / Fold change vs veh, ACBD3 / RFU, TMA16 / Fold change vs veh, TMA16 / RFU, RWDD3 / Fold change vs veh, RWDD3 / RFU, BCAT1 / Fold change vs veh, BCAT1 / RFU, EDEM3 / Fold change vs veh, EDEM3 / RFU, TMEM33 / Fold change vs veh, TMEM33 / RFU, WDR75 / Fold change vs veh, WDR75 / RFU, AHCTF1 / Fold change vs veh, AHCTF1 / RFU, TFRC / Fold change vs veh, TFRC / RFU, ZDHHC17 / Fold change vs veh, ZDHHC17 / RFU, NOM1 / Fold change vs veh, NOM1 / RFU, ARL8B / Fold change vs veh, ARL8B / RFU, ZBTB11 / Fold change vs veh, ZBTB11 / RFU, TAMM41 / Fold change vs veh, TAMM41 / RFU, KIAA1704 /// LOC100996395 / Fold change vs veh, KIAA1704 /// LOC100996395 / RFU, ING1 / Fold change vs veh, ING1 / RFU, TRMT61B / Fold change vs veh, TRMT61B / RFU, FUBP3 / Fold change vs veh, FUBP3 / RFU, TP53 / Fold change vs veh, TP53 / RFU, TNKS2 / Fold change vs veh, TNKS2 / RFU, ZFP14 / Fold change vs veh, ZFP14 / RFU, ACTR2 / Fold change vs veh, ACTR2 / RFU, PPP3R1 / Fold change vs veh, PPP3R1 / RFU, PIK3R1 / Fold change vs veh, PIK3R1 / RFU, HNRNPA1 / Fold change vs veh, HNRNPA1 / RFU, RNF170 / Fold change vs veh, RNF170 / RFU, ZNF28 / Fold change vs veh, ZNF28 / RFU, RNGTT / Fold change vs veh, RNGTT / RFU, OGT / Fold change vs veh, OGT / RFU, BRD1 / Fold change vs veh, BRD1 / RFU, MARS / Fold change vs veh, MARS / RFU, ZNF655 / Fold change vs veh, ZNF655 / RFU, FAHD1 / Fold change vs veh, FAHD1 / RFU, BDP1 / Fold change vs veh, BDP1 / RFU, LRRCC1 / Fold change vs veh, LRRCC1 / RFU, ARID1A / Fold change vs veh, ARID1A / RFU, ZNF146 / Fold change vs veh, ZNF146 / RFU, ZNF330 / Fold change vs veh, ZNF330 / RFU, GPN3 / Fold change vs veh, GPN3 / RFU, C9orf123 / Fold change vs veh, C9orf123 / RFU, N4BP2L2 / Fold change vs veh, N4BP2L2 / RFU, ARFIP1 / Fold change vs veh, ARFIP1 / RFU, FAM179B / Fold change vs veh, FAM179B / RFU, BCL10 / Fold change vs veh, BCL10 / RFU, UHRF1BP1L / Fold change vs veh, UHRF1BP1L / RFU, BET1 / Fold change vs veh, BET1 / RFU, CNOT2 / Fold change vs veh, CNOT2 / RFU, ZNF268 / Fold change vs veh, ZNF268 / Fold change vs veh, ZNF507 / RFU, DGCR2 / Fold change vs veh, DGCR2 / RFU, WDSUB1 / Fold change vs veh, WDSUB1 / Fold change vs veh, HSP90B1 /// MIR3652 / RFU, ADSS / Fold change vs veh, ADSS / RFU, GK / Fold change vs veh, GK / RFU, ZNF148 / Fold change vs veh, ZNF148 / RFU, TAF9 / Fold change vs veh, TAF9 / RFU, SLC1A5 / Fold change vs veh, SLC1A5 / RFU, SLMO2 / Fold change vs veh, SLMO2 / RFU, ABCC4 / Fold change vs veh, ABCC4 / RFU, LOC101060439 /// RAP1B / Fold change vs veh, LOC101060439 /// RAP1B / RFU, RFX7 / Fold change vs veh, RFX7 / RFU, GTPBP10 / Fold change vs veh, GTPBP10 / RFU, CNEP1R1 / Fold change vs veh, CNEP1R1 / RFU, BIVM-ERCC5 /// ERCC5 / Fold change vs veh, BIVM-ERCC5 /// ERCC5 / RFU, ILF3 / Fold change vs veh, ILF3 / RFU 11762660_at / Fold change /veh 11762660_at / RFU VCAN (11757783_s_at) / Fold change /veh VCAN (11757783_s_at) / RFU DDX43 (11728927_at) / Fold change /veh DDX43 (11728927_at) / RFU KRT8 (11758188_x_at) / Fold change /veh KRT8 (11758188_x_at) / RFU NKD1 (11759106_at) / Fold change /veh NKD1 (11759106_at) / RFU SRD5A1 (11742802_a_at) / Fold change /veh SRD5A1 (11742802_a_at) / RFU TPSAB1 /// TPSB2 (11721975_s_at) / Fold change /veh TPSAB1 /// TPSB2 (11721975_s_at) / RFU GSTM3 (11746129_a_at) / Fold change /veh GSTM3 (11746129_a_at) / RFU IL23R (11737362_x_at) / Fold change /veh IL23R (11737362_x_at) / RFU TMEM51 (11727254_a_at) / Fold change /veh TMEM51 (11727254_a_at) / RFU PIWIL2 (11732686_x_at) / Fold change /veh PIWIL2 (11732686_x_at) / RFU ORM1 (11744905_x_at) / Fold change /veh ORM1 (11744905_x_at) / RFU CCDC152 (11743942_at) / Fold change /veh CCDC152 (11743942_at) / RFU ECM1 (11717891_a_at) / Fold change /veh ECM1 (11717891_a_at) / RFU IL23R (11748794_a_at) / Fold change /veh IL23R (11748794_a_at) / RFU TNFAIP8L3 (11732012_x_at) / Fold change /veh TNFAIP8L3 (11732012_x_at) / RFU MBOAT4 (11741988_at) / Fold change /veh MBOAT4 (11741988_at) / RFU 11764193_at / Fold change /veh 11764193_at / RFU TMEM53 (11763286_at) / Fold change /veh TMEM53 (11763286_at) / RFU MAGEB2 (11727129_at) / Fold change /veh MAGEB2 (11727129_at) / RFU TMEM200A (11744735_a_at) / Fold change /veh TMEM200A (11744735_a_at) / RFU CCDC152 (11751479_a_at) / Fold change /veh CCDC152 (11751479_a_at) / RFU FAM211A (11726209_a_at) / Fold change /veh FAM211A (11726209_a_at) / RFU RGS16 (11746705_a_at) / Fold change /veh RGS16 (11746705_a_at) / RFU VCAN (11755009_s_at) / Fold change /veh VCAN (11755009_s_at) / RFU RHOB (11743442_s_at) / Fold change /veh RHOB (11743442_s_at) / RFU RGS16 (11720943_a_at) / Fold change /veh RGS16 (11720943_a_at) / RFU RGS16 (11720944_at) / Fold change /veh RGS16 (11720944_at) / RFU, VPS4B / Fold change vs veh, VPS4B / RFU, CREB1 / Fold change vs veh, CREB1 / RFU, DNAJC13 / Fold change vs veh, DNAJC13 / RFU, GNAQ / Fold change vs veh, GNAQ / RFU, CDK5R1 / Fold change vs veh, CDK5R1 / RFU, ZRANB3 / Fold change vs veh, ZRANB3 / RFU, CUL4A / Fold change vs veh, CUL4A / RFU, CCNY / Fold change vs veh, CCNY / RFU, UFL1 / Fold change vs veh, UFL1 / RFU, COG3 / Fold change vs veh, COG3 / RFU, DIAPH2 / Fold change vs veh, DIAPH2 / RFU, SKA2 / Fold change vs veh, SKA2 / RFU, AFF3 / Fold change vs veh, AFF3 / RFU, LMF1 / Fold change vs veh, LMF1 / RFU, IPO11 / Fold change vs veh, IPO11 / RFU, DFFB / Fold change vs veh, DFFB / RFU, FOXP1 / Fold change vs veh, FOXP1 / RFU, CARD8 / Fold change vs veh, CARD8 / RFU, STRN3 / Fold change vs veh, STRN3 / RFU, ADK / Fold change vs veh, ADK / RFU, RASSF2 / Fold change vs veh, RASSF2 / RFU, WIPF1 / Fold change vs veh, WIPF1 / RFU, LARP1B / Fold change vs veh, LARP1B / RFU, RASA1 / Fold change vs veh, RASA1 / RFU, RB1 / Fold change vs veh, RB1 / RFU, PPFIA1 / Fold change vs veh, PPFIA1 / RFU, MAT2A / Fold change vs veh, MAT2A / RFU, CCT5 / Fold change vs veh, CCT5 / RFU, WDR92 / Fold change vs veh, WDR92 / RFU, CUX1 / Fold change vs veh, CUX1 / RFU, TTC7A / Fold change vs veh, TTC7A / RFU, TMEM135 / Fold change vs veh, TMEM135 / RFU, DEPTOR / Fold change vs veh, DEPTOR / RFU, CPM / Fold change vs veh, CPM / RFU, DNAJB6 / Fold change vs veh, DNAJB6 / RFU, CACNA2D3 / Fold change vs veh, CACNA2D3 / RFU, DTX4 / Fold change vs veh, DTX4 / RFU, TFCP2 / Fold change vs veh, TFCP2 / RFU, GMCL1 /// GMCL1P1 / Fold change vs veh, GMCL1 /// GMCL1P1 / RFU, AEBP2 / Fold change vs veh, AEBP2 / RFU, SNHG1 /// SNORD22 /// SNORD25 /// SNORD26 /// SNORD27 /// SNORD28 /// SNORD29 /// SNORD31 / Fold change vs veh, SNHG1 /// SNORD22 /// SNORD25 /// SNORD26 /// SNORD27 /// SNORD28 /// SNORD29 /// SNORD31 / Fold change (Aza/veh), C12orf56 (ProbeSet 11735607_a_at) / Fold change (ACY-1035/veh), C12orf56 (ProbeSet 11735607_a_at) / Fold change (Aza/veh), FGFR1OP (ProbeSet 11751329_s_at) / Fold change (ACY-1035/veh), FGFR1OP (ProbeSet 11751329_s_at) / Fold change (Aza/veh), VPS36 (ProbeSet 11739960_a_at) / Fold change (ACY-1035/veh), VPS36 (ProbeSet 11739960_a_at) / RFU SYPL1 (11715823_x_at) / Fold change /veh SYPL1 (11715823_x_at) / RFU IGFBP7 (11715501_s_at) / Fold change /veh IGFBP7 (11715501_s_at) / RFU REEP3 (11722064_at) / Fold change /veh REEP3 (11722064_at) / RFU IGLL1 (11728026_x_at) / Fold change /veh IGLL1 (11728026_x_at): dose or concentration left out as unconfirmed", "details": "MV-4-11 cells, 48 hours", "data": [{"smiles": "Nc1ccc(-c2cccs2)cc1NC(=O)c1ccc2c(c1)cc(C1CC1)n2CCN1CCOCC1", "note": "[ACY-1035]", "values": [{"measurement": "RFU TMCC2 (11721928_a_at)", "result": 13.59, "unit": "RFU"}]}]}
